Earlier results, collected in patent US20230405024A1 (priority 2020, published 2023).

cannabidiol [CBD]
solubility in water: insoluble
